Results as given in patent publication US4150139A, “Triazolobenzazepine derivatives” (Takeda Chemical Industries, Ltd., priority 1976, dated 1979).

Tested on: mice
Test: Analgesic Effect [mice, acetic acid-writhing method]
Format: in vivo
Conditions: Mus musculus, po, P.O. (per os), 95% C.L. in parentheses
From the text: The analgesic effects of some representative compounds (I) are set forth below in Table I.
[mice, acetic acid-writhing method]

Row | SMILES | ED50 [mg/kg]
1 | CSc1nnc2n1C=Cc1ccccc1C2 [(I')Z = SCH3, 3-methylthio-11H-s-triazolo[3,4-b][3]benzazepine] | 10.5
2 | C[S+]([O-])c1nnc2n1C=Cc1ccccc1C2 (centres unmarked) [(I')Z = SOCH3, 3-methylsulfinyl-11H-s-triazolo[3,4-b][3]benzazepine] | 10.3
